Laboratory results: US8735406B2, “8-oxodihydropurine derivative” (Dainippon Sumitomo Pharma Co., Ltd., priority 2009, dated 2014)
Like-named read-outs stand apart in the source and are kept apart here.

Molecular target: T1, FAAH (Rattus norvegicus, UniProt P97612)
T1 construct: Preparation of Rat Brain Membranes Preparations (FAAH Enzyme Solution); from tissue; host or cells: rat cerebrum (brain membrane preparation)
T1 sequence (P97612 1-579): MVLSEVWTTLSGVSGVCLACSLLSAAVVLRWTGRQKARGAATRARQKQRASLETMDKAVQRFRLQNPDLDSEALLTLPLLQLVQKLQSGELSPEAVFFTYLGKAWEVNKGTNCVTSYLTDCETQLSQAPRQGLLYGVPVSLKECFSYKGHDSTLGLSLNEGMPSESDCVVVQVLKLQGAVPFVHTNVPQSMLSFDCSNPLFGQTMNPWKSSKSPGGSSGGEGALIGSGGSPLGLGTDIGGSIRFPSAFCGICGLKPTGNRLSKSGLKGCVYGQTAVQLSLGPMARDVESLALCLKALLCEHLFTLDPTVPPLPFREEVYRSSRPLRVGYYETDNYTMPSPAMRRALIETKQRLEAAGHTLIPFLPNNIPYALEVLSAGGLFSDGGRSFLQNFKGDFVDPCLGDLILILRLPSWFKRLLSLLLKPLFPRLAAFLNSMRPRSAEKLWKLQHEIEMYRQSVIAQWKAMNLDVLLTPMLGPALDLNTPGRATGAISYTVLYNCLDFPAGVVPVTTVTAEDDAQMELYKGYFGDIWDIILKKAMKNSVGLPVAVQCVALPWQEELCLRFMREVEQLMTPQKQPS
Assay: Determination of FAAH inhibitory activity in rat (rat brain membrane preparations, [3H]-anandamide hydrolysis)
Type: biochemical
Details: for inhibition at 0.1 µM: read-out: FAAH Inhibition, Inhibition Rate at 100 nM; for IC50: test substance 0.1 nM to 1 μM, read-out: FAAH Inhibition IC50
Procedure, shortened: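 Compounds tested from 0.1 nM to 1 μM to derive IC50 against FAAH hydrolysis in rat brain membrane preparations (100 μg/mL). A 10-min 37 °C preincubation was followed by 10 min with [3H]-anandamide (2 nM) mixed with 2 μM unlabelled anandamide. Radioactive ethanolamine was extracted into the water/methanol layer and counted.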

[1] = rat brain membrane preparations, 100 nM test substance
[2] = rat brain membrane preparations

COc1cccc(-c2ncc3c(n2)n(C)c(=O)n3C(=O)N2CCN(c3ccc(F)cc3)CC2)c1 [Example 136, 7-{[4-(4-Fluorophenyl)piperazin-1-yl]carbonyl}-2-(3-methoxyphenyl)-9-methyl-7,9-dihydro-8H-purine-8-one]
inhibition at 0.1 µM [1]: 99%
IC50 [2]: 3 nM

COc1cccc(-c2ncc3c(n2)n(C)c(=O)n3C(=O)N2CCN(c3cccc(F)c3)CC2)c1 [Example 137, 7-{[4-(3-Fluorophenyl)piperazin-1-yl]carbonyl}-2-(3-methoxyphenyl)-9-methyl-7,9-dihydro-8H-purine-8-one]
inhibition at 0.1 µM [1]: 98%
IC50 [2]: 5 nM

COc1cccc(-c2ncc3c(n2)n(C)c(=O)n3C(=O)N2CCN(c3ccc(C)cc3)CC2)c1 [Example 138, 2-(3-Methoxyphenyl)-9-methyl-7-{[4-(4-methylphenyl)piperazin-1-yl]carbonyl}-7,9-dihydro-8H-purine-8-one]
inhibition at 0.1 µM [1]: 99%
IC50 [2]: 6 nM

COc1cccc(-c2ncc3c(n2)n(C)c(=O)n3C(=O)N2CCN(c3cccc(C)c3)CC2)c1 [Example 139, 2-(3-Methoxyphenyl)-9-methyl-7-{[4-(3-methylphenyl)piperazin-1-yl]carbonyl}-7,9-dihydro-8H-purine-8-one]
inhibition at 0.1 µM [1]: 99%
IC50 [2]: 6 nM

COc1cccc(-c2ncc3c(n2)n(C)c(=O)n3C(=O)N2CCN(c3ccccc3)CC2)c1 [Example 140, 2-(3-Methoxyphenyl)-9-methyl-7-[(4-phenylpiperazin-1-yl)carbonyl]-7,9-dihydro-8H-purine-8-one]
inhibition at 0.1 µM [1]: 99%
IC50 [2]: 7 nM

CCOc1ccc(N2CCN(C(=O)n3c(=O)n(C)c4nc(-c5cccc(OC)c5)ncc43)CC2)cc1 [Example 141, 7-{[4-(4-Ethoxyphenyl)piperazin-1-yl]carbonyl}-2-(3-methoxyphenyl)-9-methyl-7,9-dihydro-8H-purine-8-one]
inhibition at 0.1 µM [1]: 100%
IC50 [2]: 4 nM

COc1cccc(-c2ncc3c(n2)n(C)c(=O)n3C(=O)N2CCN(c3ccc(Cl)cc3)CC2)c1 [Example 142, 7-{[4-(4-Chlorophenyl)piperazin-1-yl]carbonyl}-2-(3-methoxyphenyl)-9-methyl-7,9-dihydro-8H-purine-8-one]
inhibition at 0.1 µM [1]: 99%
IC50 [2]: 5 nM

CN(C)C(=O)n1c(=O)n(C)c2nc(-c3cccnc3)ncc21 [Example 143, N,N,9-Trimethyl-8-oxo-2-(pyridin-3-yl)-8,9-dihydro-7H-purine-7-carboxamide]
inhibition at 0.1 µM [1]: 100%
IC50 [2]: 15 nM

CCOc1ccc(N2CCN(C(=O)n3c(=O)n(C)c4nc(-c5cccnc5)ncc43)CC2)cc1 [Example 144, 7-{[4-(4-Ethoxyphenyl)piperazin-1-yl]carbonyl}-9-methyl-2-(pyridin-3-yl)-7,9-dihydro-8H-purine-8-one]
inhibition at 0.1 µM [1]: 100%
IC50 [2]: < 1 nM

CN(CCc1ccc(Cl)cc1)C(=O)n1c(=O)n(C)c2nc(-c3cccnc3)ncc21 [Example 145, N-[2-(4-Chlorophenyl)ethyl]-N,9-dimethyl-8-oxo-2-(pyridin-3-yl)-8,9-dihydro-7H-purine-7-carboxamide]
inhibition at 0.1 µM [1]: 100%
IC50 [2]: < 1 nM

CN(CCOc1ccc(Cl)cc1)C(=O)n1c(=O)n(C)c2nc(-c3cccnc3)ncc21 [Example 146, N-[2-(4-Chlorophenoxy)ethyl]-N,9-dimethyl-8-oxo-2-(pyridin-3-yl)-8,9-dihydro-7H-purine-7-carboxamide]
inhibition at 0.1 µM [1]: 99%
IC50 [2]: < 1 nM

Cn1c(=O)n(C(=O)N2CCC(CCc3ccc(Cl)cc3)CC2)c2cnc(-c3cccnc3)nc21 [Example 147, 7-({4-[2-(4-Chlorophenyl)ethyl]piperidin-1-yl}carbonyl)-9-methyl-2-(pyridin-3-yl)-7,9-dihydro-8H-purine-8-one]
inhibition at 0.1 µM [1]: 96%
IC50 [2]: < 1 nM

CN(C)C(=O)n1c(=O)n(C)c2nc(-c3ccncc3)ncc21 [Example 148, N,N,9-Trimethyl-8-oxo-2-(pyridin-4-yl)-8,9-dihydro-7H-purine-7-carboxamide]
inhibition at 0.1 µM [1]: 97%
IC50 [2]: 30 nM

CCOc1ccc(N2CCN(C(=O)n3c(=O)n(C)c4nc(-c5ccncc5)ncc43)CC2)cc1 [Example 149, 7-{[4-(4-Ethoxyphenyl)piperazin-1-yl]carbonyl}-9-methyl-2-(pyridin-4-yl)-7,9-dihydro-8H-purine-8-one]
inhibition at 0.1 µM [1]: 102%
IC50 [2]: < 1 nM

CN(CCc1ccc(Cl)cc1)C(=O)n1c(=O)n(C)c2nc(-c3ccncc3)ncc21 [Example 150, N-[2-(4-Chlorophenyl)ethyl]-N,9-dimethyl-8-oxo-2-(pyridin-4-yl)-8,9-dihydro-7H-purine-7-carboxamide]
IC50 [2]: < 1 nM
inhibition at 0.1 µM: 106%

CN(CCOc1ccc(Cl)cc1)C(=O)n1c(=O)n(C)c2nc(-c3ccncc3)ncc21 [Example 151, N-[2-(4-Chlorophenoxy)ethyl]-N,9-dimethyl-8-oxo-2-(pyridin-4-yl)-8,9-dihydro-7H-purine-7-carboxamide]
inhibition at 0.1 µM [1]: 102%
IC50 [2]: 0.5 nM

Cn1c(=O)n(C(=O)N2CCC(CCc3ccc(Cl)cc3)CC2)c2cnc(-c3ccncc3)nc21 [Example 152, 7-({4-[2-(4-Chlorophenyl)ethyl]piperidin-1-yl}carbonyl)-9-methyl-2-(pyridin-4-yl)-7,9-dihydro-8H-purine-8-one]
inhibition at 0.1 µM [1]: 102%
IC50 [2]: 0.6 nM

CN(CCc1ccc(Cl)cc1)C(=O)n1c(=O)n(C)c2nc(C3CC3)ncc21 [Example 153, N-[2-(4-Chlorophenyl)ethyl]-2-cyclopropyl-N,9-dimethyl-8-oxo-8,9-dihydro-7H-purine-7-carboxamide]
inhibition at 0.1 µM [1]: 99%
IC50 [2]: 27 nM

CCCc1ncc2c(n1)n(C)c(=O)n2C(=O)N(C)CCc1ccc(Cl)cc1 [Example 154, N-[2-(4-Chlorophenyl)ethyl]-N,9-dimethyl-8-oxo-2-propyl-8,9-dihydro-7H-purine-7-carboxamide]
inhibition at 0.1 µM [1]: 101%
IC50 [2]: 2 nM

CCCCc1ncc2c(n1)n(C)c(=O)n2C(=O)N(C)CCc1ccc(Cl)cc1 [Example 155, 2-Butyl-N-[2-(4-chlorophenyl)ethyl]-N,9-dimethyl-8-oxo-8,9-dihydro-7H-purine-7-carboxamide]
inhibition at 0.1 µM [1]: 102%
IC50 [2]: 4 nM

CN(CCc1ccc(Cl)cc1)C(=O)n1c(=O)n(C)c2nc(C3CCCCC3)ncc21 [Example 156, N-[2-(4-Chlorophenyl)ethyl]-2-cyclohexyl-N,9-dimethyl-8-oxo-8,9-dihydro-7H-purine-7-carboxamide]
inhibition at 0.1 µM [1]: 96%
IC50 [2]: 10 nM

Cc1ncc2c(n1)n(C)c(=O)n2C(=O)N(C)CCc1ccc(Cl)cc1 [Example 157, N-[2-(4-Chlorophenyl)ethyl]-N,2,9-trimethyl-8-oxo-8,9-dihydro-7H-purine-7-carboxamide]
inhibition at 0.1 µM [1]: 103%
IC50 [2]: < 10 nM

CN(CCc1ccc(Cl)cc1)C(=O)n1c(=O)n(C)c2nc(Cc3ccccc3)ncc21 [Example 158, 2-Benzyl-N-[2-(4-chlorophenyl)ethyl]-N,9-dimethyl-8-oxo-8,9-dihydro-7H-purine-7-carboxamide]
inhibition at 0.1 µM [1]: 102%
IC50 [2]: < 1 nM

CCN(C)C(=O)n1c(=O)n(C)c2nc(C3CC3)ncc21 [Example 159]
inhibition at 0.1 µM [1]: 61%
IC50 [2]: 81 nM

CCN(C)C(=O)n1c(=O)n(C)c2nc(CC(C)(C)C)ncc21 [Example 160, 2-(2,2-Dimethylpropyl)-N-ethyl-N,9-dimethyl-8-oxo-8,9-dihydro-7H-purine-7-carboxamide]
inhibition at 0.1 µM [1]: 98%
IC50 [2]: 14 nM

CCCCc1ncc2c(n1)n(C)c(=O)n2C(=O)N(C)CC [Example 161, 2-Butyl-N-ethyl-N,9-dimethyl-8-oxo-8,9-dihydro-7H-purine-7-carboxamide]
inhibition at 0.1 µM [1]: 93%
IC50 [2]: 19 nM

CCN(C)C(=O)n1c(=O)n(C)c2nc(C3CCCCC3)ncc21 [Example 162, 2-Cyclohexyl-N-ethyl-N,9-dimethyl-8-oxo-8,9-dihydro-7H-purine-7-carboxamide]
inhibition at 0.1 µM [1]: 72%
IC50 [2]: 38 nM

CCN(C)C(=O)n1c(=O)n(C)c2nc(C)ncc21 [Example 163]
inhibition at 0.1 µM [1]: 27%
IC50 [2]: > 100 nM

Cn1c(=O)n(C(=O)N2CCC2)c2nc(CCc3cccc(F)c3)ncc21 [Example 164, 9-(Azetidin-1-ylcarbonyl)-2-[2-(3-fluorophenyl)ethyl]-7-methyl-7,9-dihydro-8H-purine-8-one]
inhibition at 0.1 µM [1]: 98%
IC50 [2]: 5 nM

CN(C)C(=O)n1c(=O)n(C)c2cnc(CCc3cccc(F)c3)nc21 [Example 165, 2-[2-(3-Fluorophenyl)ethyl]-N,N,7-trimethyl-8-oxo-7,8-dihydro-9H-purine-9-carboxamide]
inhibition at 0.1 µM [1]: 103%
IC50 [2]: 4 nM
